# System: CS-induced ALI mice
# Assay: CS-induced lung injury model: in vivo cytokine assay by ELISA in BALF
# Parameters: species or system Balb/c mice
# Settings: p<0.01
# Method: Model preparation: The mice were randomly divided into 5 groups (12 mice in each group), which were the control group (the mice were exposed to fresh air), the saline group (the mice were exposed to cigarette smoke), dexamethasone (Dex) group (1 mg/kg) (the mice were exposed to cigarette smoke), CT-NA 10 mg/kg group and CT-NA 30 mg/kg group (the mice were exposed to cigarette smoke). According to the grouping, the mice were intragastrically administered saline, Dex and CT-NA, respectively. […] 24 hrs after the last exposure to the cigarette smoke, the partial pressure of oxygen (PO2) of all mice was measured by the Moor VMS-OXY™ measuring instrument, which was used to measure the oxygenated/deoxygenated hemoglobin concentration and oxygen saturation (percentage) in the microcirculation at the wavelength range of 500 to 650 nm. […] The expression levels of pro-inflammatory cytokines (TNF-α, IL-1β, IL-6), chemokines (KC) and anti-inflammatory cytokines (IL-10) in the BALF supernatant were determined using respective ELISA determination kits according to the instruction manual. After the optical density at 450 nm was measured, the expression of cytokines was calculated via the standard curve.
smiles,measurement,setting,value
CN([C@@H]1CCc2c(CC(=O)[O-])c3cccnc3n2C1)S(=O)(=O)c1ccc(F)cc1.[Na+] [Sodium salt hydrate],"CS-induced overexpression of TNF-α, IL-1β, IL-6 and KC in BALF",CT-NA 10 and 30 mg/kg intragastric,effectively reduced
same,CS-induced inhibition of IL-10 in BALF,CT-NA treatment,reversed
